Activity calls are given as the source filed them.
Key:
Cytochrome P450 3A4 = Cytochrome P450 3A4 (Homo sapiens, UniProt P08684); conditions: Potency;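 also: confirmatory qHTS run detecting inhibitors and substrates of CYP3A4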
[1] = biological target: Luciferin 4-monooxygenase (Photinus pyralis, UniProt P08659); test: Counter Screen for Luciferase-based Assay Positives. [Related pubchem assays: 620, 618, 411 ]
HT-1080 = test: HT1080 cell viability loss – fluorescence readout (AID 620); assay type: functional, cell-based; conditions: Homo sapiens
[2] = A Cell Based Secondary Assay To Explore Cytotoxicity of Compounds that Sensitize Mycobacterium Tuberculosis to Beta-Lactam Antibiotics.; assay type: functional
Cytochrome P450 1A2 = biological target: T1, Cytochrome P450 1A2 (Homo sapiens, UniProt P05177);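 also: PubChem cytochrome P450 panel assay, CYP1A2 panel member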
T1 sequence (P05177 whole entry): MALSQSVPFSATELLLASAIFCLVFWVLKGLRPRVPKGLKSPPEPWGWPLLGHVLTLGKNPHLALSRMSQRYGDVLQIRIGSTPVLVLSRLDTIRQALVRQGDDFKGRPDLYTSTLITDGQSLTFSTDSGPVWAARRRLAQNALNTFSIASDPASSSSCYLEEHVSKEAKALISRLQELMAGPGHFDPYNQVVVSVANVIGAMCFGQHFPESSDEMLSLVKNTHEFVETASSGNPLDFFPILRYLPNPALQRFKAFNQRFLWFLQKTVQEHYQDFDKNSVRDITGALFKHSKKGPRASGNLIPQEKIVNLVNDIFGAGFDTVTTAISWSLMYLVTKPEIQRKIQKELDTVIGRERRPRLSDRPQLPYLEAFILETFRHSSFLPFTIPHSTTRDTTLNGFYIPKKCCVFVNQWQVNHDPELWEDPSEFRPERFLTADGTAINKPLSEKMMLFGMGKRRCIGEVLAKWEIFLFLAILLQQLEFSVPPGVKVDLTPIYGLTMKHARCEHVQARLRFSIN

[3] = HEK-293T cell viability reduction – luminescence, B-cell screen hits, cytotoxicity control for BCR NF-kB inhibitor project, dose response (AID 489021); assay type: functional, cell-based;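 also: HEK-293T cells carrying an NF-kB luciferase reporter; cells exposed to compound for about 14 hours before viability readout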
[4] = Trypanosoma cruzi growth suppression in host cells – NIH3T3 host cells, beta-gal luminescence, confirmation (AID 2044); assay type: functional, cell-based;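 also: intracellular parasites grown in NIH/3T3 mouse fibroblasts as host cells; luminescent beta-galactosidase reporter signal from transgenic T. cruzi replicating inside host cells; inhibitors lower the luminescence signal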
[5] = viability of PTEN-deleted HCT116 cells – cell-based, HCT116 PTEN knockout, dose response (AID 1047); assay type: functional;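 also: HCT116 colon tumor cells with PTEN knocked out; cells exposed to compound for 60 hours before readout; potency for loss of cell viability measured by luminescence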
[6] = NIH3T3 cell viability loss – ATP luminescence, mouse fibroblasts, counter-screen, dose response (AID 2010); assay type: functional, cell-based;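 also: cells exposed to compound for about 90 hours before reading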
[7] = viability of HCT116 lacking mutant beta-catenin – cell-based, human colon tumor, dose response (AID 1045); assay type: functional;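 also: HCT116 colon tumor cells with beta catenin knocked out; cells exposed to compound for 60 hours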
[8] = biological target: T2, RNA-binding protein pos-1 (Caenorhabditis elegans, UniProt G5EF15); test: disruptors of C. elegans POS-1 RNA interaction – biochemical, fluorescence polarization, dose response (AID 1964);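 also: purified POS-1 fused to maltose binding protein made in E. coli; potency of compounds blocking POS-1 binding to fluorescent RNA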
T2 sequence (G5EF15 whole entry): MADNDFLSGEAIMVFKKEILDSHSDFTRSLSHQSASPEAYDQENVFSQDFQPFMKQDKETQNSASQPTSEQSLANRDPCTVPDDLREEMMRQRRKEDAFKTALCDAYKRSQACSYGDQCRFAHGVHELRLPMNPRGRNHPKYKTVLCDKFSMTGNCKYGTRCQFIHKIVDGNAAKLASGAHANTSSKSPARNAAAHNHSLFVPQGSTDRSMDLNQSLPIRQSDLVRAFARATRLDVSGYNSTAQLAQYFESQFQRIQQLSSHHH

[9] = biological target: T3, Zinc finger protein mex-5 (Caenorhabditis elegans, UniProt Q9XUB2); test: potency of MEX-5 RNA-binding blockers – biochemical, C. elegans, fluorescence polarization, dose response (AID 1960)
T3 sequence (Q9XUB2 whole entry): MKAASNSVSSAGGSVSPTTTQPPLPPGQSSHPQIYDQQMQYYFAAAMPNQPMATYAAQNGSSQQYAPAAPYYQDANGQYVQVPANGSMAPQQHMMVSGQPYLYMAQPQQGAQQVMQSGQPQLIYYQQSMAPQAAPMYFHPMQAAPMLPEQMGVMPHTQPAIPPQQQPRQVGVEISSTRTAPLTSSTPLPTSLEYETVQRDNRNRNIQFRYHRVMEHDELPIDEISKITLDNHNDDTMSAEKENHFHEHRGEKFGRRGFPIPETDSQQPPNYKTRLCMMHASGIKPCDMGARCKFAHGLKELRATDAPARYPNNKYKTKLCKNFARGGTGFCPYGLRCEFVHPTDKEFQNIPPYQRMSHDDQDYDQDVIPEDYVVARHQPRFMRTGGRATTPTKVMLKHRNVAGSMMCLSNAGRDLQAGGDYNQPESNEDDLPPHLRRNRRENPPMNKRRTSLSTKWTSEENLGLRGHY

Estrogen receptor = biological target: T4, Estrogen receptor (Homo sapiens, UniProt P03372);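 also: potency for inhibiting coactivator peptide recruitment to the receptor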
T4 sequence (P03372 whole entry): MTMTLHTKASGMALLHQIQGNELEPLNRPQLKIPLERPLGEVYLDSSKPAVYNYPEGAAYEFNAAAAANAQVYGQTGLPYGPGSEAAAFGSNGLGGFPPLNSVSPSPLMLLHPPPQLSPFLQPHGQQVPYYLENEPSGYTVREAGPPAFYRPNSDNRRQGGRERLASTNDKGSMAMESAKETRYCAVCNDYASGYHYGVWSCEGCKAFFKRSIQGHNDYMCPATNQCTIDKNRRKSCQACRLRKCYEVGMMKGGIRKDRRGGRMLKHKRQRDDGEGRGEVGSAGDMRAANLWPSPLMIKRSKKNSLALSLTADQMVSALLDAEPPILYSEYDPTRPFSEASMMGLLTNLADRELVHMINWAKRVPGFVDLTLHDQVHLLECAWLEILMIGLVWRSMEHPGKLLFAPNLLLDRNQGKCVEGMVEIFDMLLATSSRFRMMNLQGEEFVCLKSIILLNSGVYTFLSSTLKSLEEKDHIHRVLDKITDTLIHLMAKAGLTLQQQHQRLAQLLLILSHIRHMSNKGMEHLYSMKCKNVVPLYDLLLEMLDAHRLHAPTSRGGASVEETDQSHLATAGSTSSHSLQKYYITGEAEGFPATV

Estrogen receptor beta = Estrogen receptor beta (Homo sapiens, UniProt Q92731); test: blockers of SRC-3 recruitment to ERβ – biochemical, ELISA, streptavidin-HRP readout, orthogonal assay, confirmation (AID 1060)
Estrogen receptor beta, sequence (Q92731 whole entry): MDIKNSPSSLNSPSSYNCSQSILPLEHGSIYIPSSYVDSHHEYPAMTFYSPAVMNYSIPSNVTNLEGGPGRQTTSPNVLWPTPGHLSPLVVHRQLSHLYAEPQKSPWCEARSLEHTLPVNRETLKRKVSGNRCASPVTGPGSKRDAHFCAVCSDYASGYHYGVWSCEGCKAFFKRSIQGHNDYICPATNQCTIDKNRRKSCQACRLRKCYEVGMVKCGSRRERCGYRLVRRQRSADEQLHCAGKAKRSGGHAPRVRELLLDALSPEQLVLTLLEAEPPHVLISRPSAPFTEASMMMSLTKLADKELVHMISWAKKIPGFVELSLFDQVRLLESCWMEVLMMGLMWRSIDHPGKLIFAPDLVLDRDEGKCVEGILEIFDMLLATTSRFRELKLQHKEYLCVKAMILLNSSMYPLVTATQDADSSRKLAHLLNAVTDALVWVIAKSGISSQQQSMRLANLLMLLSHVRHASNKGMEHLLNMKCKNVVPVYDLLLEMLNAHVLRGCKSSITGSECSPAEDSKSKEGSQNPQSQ

[10] = biological target: Induced myeloid leukemia cell differentiation protein Mcl-1 (Homo sapiens, UniProt Q07820); assay type: functional
Induced myeloid leukemia cell differentiation protein Mcl-1, sequence (Q07820 whole entry): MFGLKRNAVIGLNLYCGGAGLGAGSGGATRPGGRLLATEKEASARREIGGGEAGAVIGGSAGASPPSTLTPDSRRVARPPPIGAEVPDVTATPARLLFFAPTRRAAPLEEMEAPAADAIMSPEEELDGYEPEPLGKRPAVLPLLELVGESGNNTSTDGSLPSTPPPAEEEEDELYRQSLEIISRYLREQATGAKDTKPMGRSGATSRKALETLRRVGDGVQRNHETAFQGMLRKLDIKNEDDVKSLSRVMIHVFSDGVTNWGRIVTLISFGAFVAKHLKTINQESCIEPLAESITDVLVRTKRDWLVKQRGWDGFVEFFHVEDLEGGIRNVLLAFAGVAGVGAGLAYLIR

Genome polyprotein = Genome polyprotein (dengue virus type 2, UniProt P29990); test: flavivirus cap methylation enzyme inhibition – biochemical, confirmation dose response, primary screen (AID 588689); assay type: functional
Genome polyprotein, sequence (P29990 2492-3391 limits assumed): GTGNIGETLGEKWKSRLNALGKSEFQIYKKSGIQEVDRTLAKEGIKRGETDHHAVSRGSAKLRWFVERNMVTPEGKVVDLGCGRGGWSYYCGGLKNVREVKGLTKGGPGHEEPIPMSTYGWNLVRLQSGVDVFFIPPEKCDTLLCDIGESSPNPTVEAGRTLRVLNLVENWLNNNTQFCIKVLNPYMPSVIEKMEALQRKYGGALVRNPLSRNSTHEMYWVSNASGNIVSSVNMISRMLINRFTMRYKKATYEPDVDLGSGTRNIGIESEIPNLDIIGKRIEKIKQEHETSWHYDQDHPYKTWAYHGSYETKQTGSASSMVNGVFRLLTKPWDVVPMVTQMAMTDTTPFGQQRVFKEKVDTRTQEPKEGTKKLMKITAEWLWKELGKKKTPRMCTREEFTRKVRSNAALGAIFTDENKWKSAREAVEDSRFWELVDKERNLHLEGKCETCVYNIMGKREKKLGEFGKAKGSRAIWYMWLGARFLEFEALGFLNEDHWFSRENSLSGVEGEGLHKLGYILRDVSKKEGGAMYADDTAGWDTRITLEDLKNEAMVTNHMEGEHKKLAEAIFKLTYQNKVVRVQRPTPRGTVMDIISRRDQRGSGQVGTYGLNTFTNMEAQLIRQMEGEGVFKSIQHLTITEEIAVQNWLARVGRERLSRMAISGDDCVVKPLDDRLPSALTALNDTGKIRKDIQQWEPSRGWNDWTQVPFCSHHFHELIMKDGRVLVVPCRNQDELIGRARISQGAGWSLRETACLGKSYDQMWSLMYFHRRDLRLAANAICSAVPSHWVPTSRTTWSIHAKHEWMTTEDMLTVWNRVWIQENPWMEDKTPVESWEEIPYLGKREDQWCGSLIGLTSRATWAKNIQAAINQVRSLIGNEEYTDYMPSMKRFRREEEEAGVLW

[11] = biological target: T5, Polyadenylate-binding protein 1 (Homo sapiens, UniProt P11940); test: MLLE binding blockers, Cy5 peptide tracer – biochemical, fluorescence polarization, Cy5-PAM2 peptide, secondary, miRNA deadenylation inhibitor project, dose response (AID 602260); assay type: functional; conditions: read-out: IC50_Mean
T5 sequence (P11940 whole entry, the tested form may be a part): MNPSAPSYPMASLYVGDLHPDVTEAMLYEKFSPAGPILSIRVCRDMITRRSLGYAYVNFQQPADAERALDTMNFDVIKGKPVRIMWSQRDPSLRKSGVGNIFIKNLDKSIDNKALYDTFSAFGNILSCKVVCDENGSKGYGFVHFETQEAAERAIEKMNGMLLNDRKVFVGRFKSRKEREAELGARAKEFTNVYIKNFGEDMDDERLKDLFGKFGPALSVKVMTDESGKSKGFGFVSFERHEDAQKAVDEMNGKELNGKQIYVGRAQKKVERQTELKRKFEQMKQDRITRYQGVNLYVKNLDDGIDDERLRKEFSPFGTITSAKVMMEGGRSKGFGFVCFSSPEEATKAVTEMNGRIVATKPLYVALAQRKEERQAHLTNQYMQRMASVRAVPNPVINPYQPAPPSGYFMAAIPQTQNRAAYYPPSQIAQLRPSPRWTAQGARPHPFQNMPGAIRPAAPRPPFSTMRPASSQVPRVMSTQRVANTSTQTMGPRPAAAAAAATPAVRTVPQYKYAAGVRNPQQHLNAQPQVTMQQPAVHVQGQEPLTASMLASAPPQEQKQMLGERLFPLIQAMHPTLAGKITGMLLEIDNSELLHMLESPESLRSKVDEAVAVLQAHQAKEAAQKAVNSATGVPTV

[12] = biological target: T5, Polyadenylate-binding protein 1; test: MLLE domain peptide-binding blockers, IC50 – biochemical, fluorescence polarization, FITC-PAM2 peptide, dose response (AID 602259); assay type: functional; conditions: read-out: IC50_Mean
[13] = biological target: DNA dC->dU-editing enzyme APOBEC-3G (Homo sapiens, UniProt Q9HC16); test: Dose Response confirmation of small molecule APOBEC3G DNA Deaminase Inhibitors via a fluorescence-based single-stranded DNA deaminase assay. [Related pubchem assays (depositor defined):AID493012, AID493028]; assay type: functional
DNA dC->dU-editing enzyme APOBEC-3G, sequence (Q9HC16 whole entry): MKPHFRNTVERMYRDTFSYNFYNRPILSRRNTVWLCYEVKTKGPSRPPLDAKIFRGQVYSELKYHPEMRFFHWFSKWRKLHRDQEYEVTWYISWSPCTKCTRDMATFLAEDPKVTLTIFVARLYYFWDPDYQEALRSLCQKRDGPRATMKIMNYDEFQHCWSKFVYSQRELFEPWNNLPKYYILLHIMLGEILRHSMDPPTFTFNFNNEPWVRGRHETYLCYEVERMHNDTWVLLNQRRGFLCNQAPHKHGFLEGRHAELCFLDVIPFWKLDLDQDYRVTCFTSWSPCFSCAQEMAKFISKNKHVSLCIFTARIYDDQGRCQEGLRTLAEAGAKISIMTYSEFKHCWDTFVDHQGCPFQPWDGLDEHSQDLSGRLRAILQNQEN

[14] = tested on: Streptococcus sp. 'group A'; test: Streptococcus pyogenes SK(-)GAS viability under kanamycin – luminescence, BacTiterGlo, confirmation, counter-screen for streptokinase expression inhibitor project, dose response (AID 1900); assay type: functional, organism-based
Streptokinase A = biological target: T6, Streptokinase A (Streptococcus pyogenes serotype M1, UniProt P10520); test: viability-normalized secreted streptokinase activity reduction – plasminogen activation absorbance, OD405, dose response (AID 1914); assay type: functional, Streptococcus pyogenes M1 GAS;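 also: secreted streptokinase activity via plasminogen activation per viability signal from cell pellet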
T6 sequence (P10520 whole entry): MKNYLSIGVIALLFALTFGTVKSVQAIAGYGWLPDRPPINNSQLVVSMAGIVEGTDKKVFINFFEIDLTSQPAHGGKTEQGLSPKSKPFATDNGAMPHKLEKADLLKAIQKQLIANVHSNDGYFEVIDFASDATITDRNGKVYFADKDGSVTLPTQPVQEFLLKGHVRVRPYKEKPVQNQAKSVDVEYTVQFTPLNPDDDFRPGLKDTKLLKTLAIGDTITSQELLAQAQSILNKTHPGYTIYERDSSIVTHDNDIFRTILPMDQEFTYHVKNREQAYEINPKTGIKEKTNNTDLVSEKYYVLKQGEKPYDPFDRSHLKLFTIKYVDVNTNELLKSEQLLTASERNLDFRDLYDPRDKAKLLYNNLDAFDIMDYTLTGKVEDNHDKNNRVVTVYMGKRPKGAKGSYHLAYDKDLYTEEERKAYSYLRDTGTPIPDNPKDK

Streptococcus = test: GAS UMAA2166 growth inhibition – luminescence, BacTiterGlo, counter-screen for streptokinase expression inhibitor project, dose response (AID 1915); assay type: functional, organism-based;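 also: potency for reduction of bacterial viability or growth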

Luciferin 4-monooxygenase, sequence (P08659 whole entry): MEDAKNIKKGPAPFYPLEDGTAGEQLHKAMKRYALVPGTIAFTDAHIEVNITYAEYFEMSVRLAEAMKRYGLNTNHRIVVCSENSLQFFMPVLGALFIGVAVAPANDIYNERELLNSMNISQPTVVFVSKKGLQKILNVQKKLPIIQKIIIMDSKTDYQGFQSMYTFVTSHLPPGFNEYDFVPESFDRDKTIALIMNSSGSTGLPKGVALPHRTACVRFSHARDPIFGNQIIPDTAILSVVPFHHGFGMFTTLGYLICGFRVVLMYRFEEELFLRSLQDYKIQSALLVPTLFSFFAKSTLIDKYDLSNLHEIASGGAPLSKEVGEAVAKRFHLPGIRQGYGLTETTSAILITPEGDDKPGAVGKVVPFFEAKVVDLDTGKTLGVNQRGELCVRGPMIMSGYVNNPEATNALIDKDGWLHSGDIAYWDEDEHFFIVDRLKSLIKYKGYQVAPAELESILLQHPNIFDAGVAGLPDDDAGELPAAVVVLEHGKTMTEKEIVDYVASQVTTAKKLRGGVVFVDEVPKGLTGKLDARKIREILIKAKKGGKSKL
Cytochrome P450 3A4, sequence (P08684 whole entry): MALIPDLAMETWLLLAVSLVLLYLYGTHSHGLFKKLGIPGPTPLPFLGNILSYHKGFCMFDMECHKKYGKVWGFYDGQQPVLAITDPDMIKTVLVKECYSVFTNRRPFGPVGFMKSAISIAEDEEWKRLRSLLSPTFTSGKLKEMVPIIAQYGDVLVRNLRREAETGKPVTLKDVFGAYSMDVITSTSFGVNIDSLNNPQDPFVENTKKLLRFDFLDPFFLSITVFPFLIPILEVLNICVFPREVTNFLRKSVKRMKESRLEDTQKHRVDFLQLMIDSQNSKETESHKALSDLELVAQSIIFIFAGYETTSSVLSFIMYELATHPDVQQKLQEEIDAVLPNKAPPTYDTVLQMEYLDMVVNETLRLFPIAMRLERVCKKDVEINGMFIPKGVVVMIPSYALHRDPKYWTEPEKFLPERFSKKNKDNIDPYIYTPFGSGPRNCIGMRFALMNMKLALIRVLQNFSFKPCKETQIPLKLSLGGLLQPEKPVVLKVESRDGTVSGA

SMILES: CC(C)CC(C)Nc1ccc(Nc2ccccc2)cc1 (centres undefined)
- AC50 (Cytochrome P450 3A4): 25.1 µM (inconclusive)

SMILES: CC(=O)OCC1=C(C(=O)O)N2C(=O)C(NC(=O)Cc3cccs3)C2SC1 (centres undefined)
- AC50 (Cytochrome P450 3A4): 31.6 µM (inconclusive)

SMILES: Brc1ccccc1-c1nc(-c2ccccc2)no1
- EC50 [1]: 5.42 µM (active)
- EC50 (HT-1080): > 50 µM (not active)

SMILES: CC(C)(C)c1ccc(OCC(O)CSc2nnc[nH]2)cc1 (centres undefined)
- EC50 [1]: 1.29 µM (active)

SMILES: O=C(CN(Cc1ccco1)C(=O)c1cccc(Cl)c1)Nc1c(Cl)cc(Cl)cc1Cl
- CC50 [2]: 24 µM (active)
- AC50 (Cytochrome P450 1A2): 12.6 µM (inconclusive)

SMILES: O=C(O)COc1ccc(-c2nccc(-c3ccccn3)n2)cc1
- IC50 [3]: > 80 µM (inactive)

SMILES: Cc1nn(Cc2ccc(Cl)cc2)c(C)c1NC(=O)CSc1nc2c(c(C(F)(F)F)n1)CCc1ccccc1-2
- CC50 [2]: 29 µM (active)
- EC50 [4]: 1.72 µM (active)
- EC50 [5]: 12.8 µM (active)
- EC50 [6]: > 60 µM (not active)
- EC50 [7]: 14 µM (active)

SMILES: COc1cccc(C2C(C)CCC3C(=O)N(C)C(C(C)C)C(=O)N32)c1 (centres undefined)
- AC50 (Cytochrome P450 3A4): 2 µM (inconclusive)

SMILES: O=C(NCCO)c1ccc2nc(-c3ccco3)c(-c3ccco3)nc2c1
- EC50 [8]: > 300 µM (not active)
- EC50 [9]: 17.5 µM (active)
- IC50 (Estrogen receptor): > 50 µM (not active)
- IC50 (Estrogen receptor beta): 11.4 µM (not active)
- IC50 [10]: < 0.4 µM (active)
- IC50 (Genome polyprotein): 67.7 µM (active)
- IC50 [11]: > 66 µM (inactive)
- IC50 [12]: > 66 µM (inactive)

SMILES: COC(=O)C1OC(=O)C2O[C@@]23[C@]2(C)C(OC(C)=O)CC4C(C)(C)C(=O)CC[C@]4(C)C2CC[C@@]13C (some centres undefined)
- AC50 (Cytochrome P450 3A4): 39.8 µM (inconclusive)

SMILES: CCCc1nc2c(C)cc(-c3nc4ccccc4n3C)cc2n1Cc1ccc(-c2ccccc2C(=O)O)cc1
- IC50 [3]: > 80 µM (inactive)

SMILES: CCCC(C)c1nnc(NC(=O)CCS(=O)(=O)c2ccccc2)s1 (centres undefined)
- IC50 [13]: 32.2 µM (active)

SMILES: CC(C)CCNC(=O)CCCOc1cc(=O)n(C)c2ccccc12
- IC50 [3]: > 80 µM (inactive)

SMILES: Cc1cccc(C(=O)N2CCN(C(=O)c3cccc(C)c3)C(C)C2)c1 (centres undefined)
- EC50 [1]: 10.6 µM (active)
- EC50 (HT-1080): > 50 µM (not active)

SMILES: CC1(C)CN=C(Nc2nc3ccccc3s2)S1
- EC50 [14]: 15.3 µM (active)
- CC50 [2]: > 40 µM (active)
- EC50 (Streptokinase A): > 150 µM (not active)
- EC50 (Streptococcus): > 150 µM (not active)

SMILES: CC(C)(C)C(=O)N1CCc2cc(-c3csc(N)n3)ccc21
- EC50 [1]: 9.92 µM (active)
- EC50 (HT-1080): > 50 µM (not active)
